The test system of the assay is Entamoeba histolytica. The assay is described as follows: Antiamoebic activity against Entamoeba histolytica. The class given is functional, organism-based.

21 compounds from ChEMBL document CHEMBL1144534, “Molecular modeling of some 1H-benzimidazole derivatives with biological activity against Entamoeba histolytica: a comparative molecular field analysis study” (Bioorg Med Chem, 2007) can be followed below.

Each structure is given as a SMILES string.

Turning to `CSc1nc2ccccc2n1C`, the IC50 was 195 nM.

The compound `Cc1nc2cc(Cl)ccc2n1C` showed an IC50 of 5.01 nM.

As to `FC(F)(F)C(F)(F)c1nc2cc(Cl)c(Cl)cc2[nH]1`, the IC50 was 209 nM.

As to `O=[N+]([O-])c1cc2nc(C(F)(F)F)[nH]c2cc1[N+](=O)[O-]`, the half-maximal inhibitory concentration (IC50) is 1350 nM.

For the compound `FC(F)(F)C(F)(F)c1nc2c(Br)c(Br)c(Br)c(Br)c2[nH]1`, the IC50 was 214 nM.

On to `Cn1c(S)nc2ccccc21`, for which 6.03 nM corresponded to half-maximal inhibition (IC50).

`FC(F)(F)c1nc2c(Br)c(Br)c(Br)c(Br)c2[nH]1` gave an IC50 of 302 nM.

`Cn1c(S)nc2ccc(Cl)cc21` showed an IC50 of 3800 nM.

`CSc1nc2ccc(Cl)cc2n1C` showed an IC50 of 575 nM.

`Cc1nc2cc(Cl)c(Cl)cc2n1C` gave an IC50 of 12.9 nM.

Compound `Cn1c(N)nc2ccc(Cl)cc21` had a concentration for half-maximal inhibition (IC50) of 245 nM.

The compound `Cn1c(N)nc2cc(Cl)c(Cl)cc21` showed a 50% inhibitory concentration (IC50) of 37.2 nM.

`Cn1c(S)nc2cc(Cl)c(Cl)cc21`: the IC50 was 129 nM.

As for `Cc1nc2ccccc2n1C`, the IC50 is 61.7 nM.

Compound `FC(F)(F)c1nc2cc(Br)ccc2[nH]1` had an IC50 of 1320 nM.

On to `FC(F)(F)c1nc2c(Br)cc(Br)cc2[nH]1`, for which the IC50 is 50.1 nM.

`CSc1nc2cc(Cl)ccc2n1C` gave an IC50 of 37.2 nM.

`Cn1c(S)nc2cc(Cl)ccc21` had an IC50 of 10 nM.

In the case of `Cc1nc2ccc(Cl)cc2n1C`, the IC50 was 204 nM.

The compound `CSc1nc2cc(Cl)c(Cl)cc2n1C` showed an IC50 of 1050 nM.

`FC(F)(F)c1nc2cc(Br)c(Br)cc2[nH]1` had an IC50 of 427 nM.
